Results as given in US12071425B2 (Genentech, Inc., priority 2018, dated 2024).
Counter-ions that a name gives are not always drawn.

Molecular target: kinase domain of IRE1 alpha (His-tagged kinase dead construct KR, AA G547-L977, D688N) (Homo sapiens (Human), UniProt O75460, D688N)
Assay: IRE1α TR-FRET competition binding assay
Conditions: competition with Kinase Tracer 236, 0.1 μM; one hour at room temperature
How it was run: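 Sf9-expressed kinase-dead KR construct (0.006 μM final) pre-incubated 1 h at 4° C with Eu anti-His antibody (0.002 μM) in HEPES pH 7.5/MgCl2/Brij/DTT buffer; Kinase Tracer 236 (ATP-competitive probe, 0.1 μM final) added with compound. 1 h at room temperature; tracer displacement read by TR-FRET (665/615 nm).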

kinase domain of IRE1 alpha (His-tagged kinase dead construct KR, AA G547-L977, D688N), sequence (O75460 547-977 D688N): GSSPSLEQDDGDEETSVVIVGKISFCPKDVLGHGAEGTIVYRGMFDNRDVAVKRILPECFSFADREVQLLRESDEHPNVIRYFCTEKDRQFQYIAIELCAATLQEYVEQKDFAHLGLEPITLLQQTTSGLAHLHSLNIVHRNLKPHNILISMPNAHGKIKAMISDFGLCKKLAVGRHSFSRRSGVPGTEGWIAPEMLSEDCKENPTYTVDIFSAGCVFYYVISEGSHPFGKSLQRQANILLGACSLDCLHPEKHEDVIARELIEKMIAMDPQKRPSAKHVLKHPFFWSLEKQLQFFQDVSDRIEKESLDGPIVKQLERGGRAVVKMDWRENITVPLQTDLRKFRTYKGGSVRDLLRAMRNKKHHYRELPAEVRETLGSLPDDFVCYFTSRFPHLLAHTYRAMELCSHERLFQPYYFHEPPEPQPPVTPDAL

Structure (SMILES)	IC50 [nM]
O=C(Nc1ccc(Oc2ncccc2-c2ccnc(N[C@@H]3CNC[C@@H](F)C3)n2)cc1)Nc1cccc(C(F)(F)F)c1 [Compound 276, 1-(4-((3-(2-(((3S,5S)-5-Fluoropiperidin-3-yl)amino)pyrimidin-4-yl)pyridin-2-yl)oxy)phenyl)-3-(3-(trifluoromethyl)phenyl)urea]	180
Cc1c(Oc2ncccc2-c2ccnc(N[C@@H]3CNC[C@@H](F)C3)n2)cc(F)c(NS(=O)(=O)Cc2ccccc2)c1F [Compound 179, N-(2,6-difluoro-4-((3-(2-(((3S,5S)-5-fluoro-3-piperidyl)amino)pyrimidin-4-yl)-2-pyridyl)oxy)-3-methyl-phenyl)-1-phenyl-methanesulfonamide]	4.3
CN(C)C1CCC(Nc2nccc(-c3cccnc3Oc3cc(F)c(NS(=O)(=O)Cc4ccccc4)c(F)c3F)n2)CC1F (single isomer, unassigned) [Compound 307, N-(4-((3-(2-((4-(Dimethylamino)-3-fluorocyclohexyl)amino)pyrimidin-4-yl)pyridin-2-yl)oxy)-2,3,6-trifluorophenyl)-1-phenylmethanesulfonamide hydrochloride]	0.31
O=S(=O)(Nc1ccc(Oc2ncccc2-c2ccnc(N[C@H]3CCCNC3)n2)c(F)c1F)c1cccc(OC(F)(F)F)c1 [Compound 207, (S)-N-(2,3-difluoro-4-((3-(2-(piperidin-3-ylamino)pyrimidin-4-yl)pyridin-2-yl)oxy)phenyl)-3-(trifluoromethoxy)benzenesulfonamide]	7.4
O=S(=O)(Cc1ccccc1)Nc1c(F)cc(Oc2ncccc2-c2ccnc(N[C@@H]3CNC[C@H](F)C3)n2)c(F)c1F [Compound 259, 1-Phenyl-N-(2,3,6-trifluoro-4-((3-(2-(((3S,5R)-5-fluoropiperidin-3-yl)amino)pyrimidin-4-yl)pyridin-2-yl)oxy)phenyl)methanesulfonamide]	2
CCC(F)(F)CS(=O)(=O)Nc1c(F)cc(Oc2ncccc2-c2ccnc(N[C@@H]3CNC[C@@H](F)C3)n2)c(F)c1F [Compound 189, 2.2-difluoro-N-(2,3,6-trifluoro-4-((3-(2-(((3S,5S)-5-fluoro-3-piperidyl)amino)pyrimidin-4-yl)-2-pyridyl)oxy)phenyl)butane-1-sulfonamide]	5
Cc1cc(NS(=O)(=O)C2CCCCC2)cc(F)c1Oc1ncccc1-c1ccnc(N[C@H]2CCCNC2)n1 [Compound 117, (S)-N-(3-fluoro-5-methyl-4-((3-(2-(piperidin-3-ylamino)pyrimidin-4-yl)pyridin-2-yl)oxy)phenyl)cyclohexanesulfonamide hydrochloride]	21
O=S(=O)(Cc1ccccc1)Nc1ccc(Oc2ncccc2-c2ccnc(N[C@H]3CC[C@H](O)CC3)n2)c(F)c1F [Compound 182, N-(2,3-difluoro-4-((3-(2-(((1r,4r)-4-hydroxycyclohexyl)amino)pyrimidin-4-yl)pyridin-2-yl)oxy)phenyl)-1-phenylmethanesulfonamide]	9.5
N#Cc1cc(Cl)ccc1CS(=O)(=O)Nc1c(F)cc(Oc2ncccc2-c2ccnc(N[C@@H]3CNC[C@@H](F)C3)n2)c(F)c1F [Compound 362]	0.2
Cc1ccc(CS(=O)(=O)Nc2c(F)cc(Oc3ncccc3-c3ccnc(N[C@@H]4CNC[C@@H](F)C4)n3)c(F)c2F)cc1 [Compound 375, 1-p-Tolyl-N-(2,3,6-trifluoro-4-((3-(2-(((3S,5S)-5-fluoropiperidin-3-yl)amino)pyrimidin-4-yl)pyridin-2-yl)oxy)phenyl)methanesulfonamide]	0.4
Cc1c(F)c(NS(=O)(=O)Cc2ccc(C#N)cc2)c(F)c(F)c1Oc1ncccc1-c1ccnc(N[C@@H]2CNC[C@@H](F)C2)n1 [Compound 255, 1-(4-Cyanophenyl)-N-(2,3,6-trifluoro-4-((3-(2-(((3S,5S)-5-fluoropiperidin-3-yl)amino)pyrimidin-4-yl)pyridin-2-yl)oxy)-5-methylphenyl)methanesulfonamide]	230
N#Cc1cc(F)ccc1CS(=O)(=O)Nc1c(F)cc(Oc2ncccc2-c2ccnc(N[C@@H]3CNC[C@@H](F)C3)n2)c(F)c1F [Compound 357, 1-(2-Cyano-4-fluoro-phenyl)-N-[2,3,6-trifluoro-4-[[3-[2-[[(3S,5S)-5-fluoro-3-piperidyl]amino]pyrimidin-4-yl]-2-pyridyl]oxy]phenyl]methanesulfonamide]	1
O=S(=O)(Cc1ccccn1)Nc1c(F)cc(Oc2ncccc2-c2ccnc(N[C@@H]3CNC[C@@H](F)C3)n2)c(F)c1F [Compound 356, 1-(2-Pyridyl)-N-[2,3,6-trifluoro-4-[[3-[2-[[(3S,5S)-5-fluoro-3-piperidyl]amino]pyrimidin-4-yl]-2-pyridyl]oxy]phenyl]methanesulfonamide]	0.2
Cn1cnc(S(=O)(=O)Nc2ccc(Oc3ncccc3-c3ccnc(N[C@H]4CCCNC4)n3)c(F)c2F)c1 [Compound 221, (S)-N-(2,3-difluoro-4-((3-(2-(piperidin-3-ylamino)pyrimidin-4-yl)pyridin-2-yl)oxy)phenyl)-1-methyl-1H-imidazole-4-sulfonamide]	380
O=C(Nc1ccc(Oc2ncccc2-c2ccnc(N[C@H]3CCCNC3)n2)c(F)c1F)C1CC12CC2 (stereo partly drawn) [Compound 151, N-(2,3-difluoro-4-((3-(2-(((S)-piperidin-3-yl)amino)pyrimidin-4-yl)pyridin-2-yl)oxy)phenyl)spiro[2.2]pentane-1-carboxamide hydrochloride]	84
CCCS(=O)(=O)Nc1cc(F)c(Oc2ncccc2-c2ccnc(N[C@H]3CC[C@H](N)CC3)n2)c(F)c1 [Compound 122, N-(4-((3-(2-(((1r,4r)-4-aminocyclohexyl)amino)pyrimidin-4-yl)pyridin-2-yl)oxy)-3,5-difluorophenyl)propane-1-sulfonamide hydrochloride]	20
O=S(=O)(Cc1ccccc1)Nc1c(F)cc(Oc2ncccc2-c2ccnc(NC3CNCC(CF)C3)n2)c(F)c1F (single isomer, unassigned) [Compound 277, 1-Phenyl-N-(2,3,6-trifluoro-4-((3-(2-((5-(fluoromethyl)piperidin-3-yl)amino)pyrimidin-4-yl)pyridin-2-yl)oxy)phenyl)methanesulfonamide]	27
Cn1cc(S(=O)(=O)Nc2ccc(Oc3ncccc3-c3ccnc(N[C@H]4CCCNC4)n3)c(F)c2F)cn1 [Compound 222, (S)-N-(2,3-difluoro-4-((3-(2-(piperidin-3-ylamino)pyrimidin-4-yl)pyridin-2-yl)oxy)phenyl)-1-methyl-1H-pyrazole-4-sulfonamide]	240
N#Cc1ccccc1CS(=O)(=O)Nc1c(F)cc(Oc2ncccc2-c2ccnc(N[C@@H]3CNC[C@@H](F)C3)n2)c(F)c1F [Compound 358]	0.3
Cc1cc(NS(=O)(=O)Cc2c(F)cccc2F)c(F)c(F)c1Oc1ncccc1-c1ccnc(N[C@@H]2CNC[C@@H](F)C2)n1 [Compound 283, N-(2,3-Difluoro-4-((3-(2-(((3S,5S)-5-fluoropiperidin-3-yl)amino)pyrimidin-4-yl)pyridin-2-yl)oxy)-5-methylphenyl)-1-(2,6-difluorophenyl)methanesulfonamide]	0.41
Cc1ccc(CS(=O)(=O)Nc2c(F)cc(Oc3ncccc3-c3ccnc(N[C@@H]4CNC[C@@](C)(F)C4)n3)c(F)c2F)cc1 [Compound 284, 1-p-Tolyl-N-(2,3,6-trifluoro-4-((3-(2-(((3S,5S)-5-fluoro-5-methylpiperidin-3-yl)amino)pyrimidin-4-yl)pyridin-2-yl)oxy)phenyl)methanesulfonamide]	0.15
CC(C)(C)CCCS(=O)(=O)Nc1ccc(Oc2ncccc2-c2ccnc(N[C@H]3CCCNC3)n2)c(F)c1F [Compound 230, (S)-N-(2,3-difluoro-4-((3-(2-(piperidin-3-ylamino)pyrimidin-4-yl)pyridin-2-yl)oxy)phenyl)-4,4-dimethylpentane-1-sulfonamide]	14
CC(F)C1CNCC(Nc2nccc(-c3cccnc3Oc3cc(F)c(NS(=O)(=O)Cc4ccccc4)c(F)c3F)n2)C1 (single isomer, unassigned) [Compound 347, 1-Phenyl-N-(2,3,6-trifluoro-4-((3-(2-((5-(1-fluoroethyl)piperidin-3-yl)amino)pyrimidin-4-yl)pyridin-2-yl)oxy)phenyl)methanesulfonamide]	49
O=S(=O)(Cc1ccccc1)Nc1ccc(Oc2ncccc2-c2ccnc(N[C@H]3CCCNC3)n2)c(F)c1F [Compound 108, (S)-N-(2,3-difluoro-4-((3-(2-(piperidin-3-ylamino)pyrimidin-4-yl)pyridin-2-yl)oxy)phenyl)-1-phenylmethanesulfonamide hydrochloride]	3.4
Cc1c(Oc2ncccc2-c2ccnc(N[C@H]3CCCNC3)n2)cc(F)c(NS(=O)(=O)Cc2ccccc2)c1C [Compound 175, (S)-N-(6-fluoro-2,3-dimethyl-4-((3-(2-(piperidin-3-ylamino)pyrimidin-4-yl)pyridin-2-yl)oxy)phenyl)-1-phenylmethanesulfonamide]	5.2
O=S(=O)(Cc1ccc(C(F)(F)F)nc1)Nc1c(F)cc(Oc2ncccc2-c2ccnc(N[C@@H]3CNC[C@@H](F)C3)n2)c(F)c1F [Compound 254, N-(2,3,6-Trifluoro-4-((3-(2-(((3S,5S)-5-fluoropiperidin-3-yl)amino)pyrimidin-4-yl)pyridin-2-yl)oxy)phenyl)-1-(6-(trifluoromethyl)pyridin-3-yl)methanesulfonamide]	0.62
O=S(=O)(CC1CCC1(F)F)Nc1c(F)cc(Oc2ncccc2-c2ccnc(N[C@@H]3CNC[C@@H](F)C3)n2)c(F)c1F (single isomer, unassigned) [Compound 264]	1.6
N[C@H]1CC[C@H](Nc2nccc(-c3cccnc3Oc3c(F)cc(NS(=O)(=O)c4ccccc4Cl)cc3Cl)n2)CC1 [Compound 104, N-[4-[[3-[2-[(4-aminocyclohexyl)amino]pyrimidin-4-yl]-2-pyridyl]oxy]-3-chloro-5-fluoro-phenyl]-2-chloro-benzenesulfonamide hydrochloride]	5.9
